Reference: patent US11130724B2, “Compound, resin, composition, resist pattern formation method, and circuit pattern formation method” (Mitsubishi Gas Chemical Company, Inc., priority 2015, dated 2021)

Assay: Solubility test in propylene glycol monomethyl ether (PGME)
Details: 5% by mass in PGME, 5° C., 30 days
Procedure: A compound was dissolved at 5% by mass in propylene glycol monomethyl ether (PGME) at 23° C. Then, the solution was left to stand still at 5° C. for 30 days.
Evaluation A: No precipitate was visually confirmed.
Evaluation C: Precipitates were visually confirmed.

Row | SMILES | solubility (summary in words of Table 7)
1 | CC(c1ccc(O)cc1)(c1ccc(O)cc1)c1ccc(C2CCCCC2)cc1 [P-2] | good
2 | CC(c1ccc(-c2ccccc2)cc1)(c1c(O)ccc2cc(O)ccc12)c1c(O)ccc2cc(O)ccc12 [BiN-2] | good
3 | CC1(c2ccc(-c3ccccc3)cc2)c2c(ccc3cc(O)ccc23)Oc2ccc3cc(O)ccc3c21 [XBiN-1] | good
4 | CC1(c2ccc(-c3ccccc3)cc2)c2c(ccc3ccc(O)cc23)Oc2ccc3ccc(O)cc3c21 [XBiN-2] | good
5 | CC(c1ccc(-c2ccccc2)cc1)(c1c(O)ccc2ccc(O)cc12)c1c(O)ccc2ccc(O)cc12 [BiN-3] | good
6 | CC(c1ccc(-c2ccccc2)cc1)(c1ccc(O)c(-c2ccccc2O)c1)c1ccc(O)c(-c2ccccc2O)c1 [BiP-3] | good
7 | CC1(c2ccc(C3CCCCC3)cc2)c2c(ccc3cc(O)ccc23)Oc2ccc3cc(O)ccc3c21 [XBiN-3] | good
8 | CC(c1ccc(-c2ccccc2)cc1)(c1cc(-c2ccc(O)cc2)ccc1O)c1cc(-c2ccc(O)cc2)ccc1O [BiP-2] | good
9 | CC(c1ccc(C2CCCCC2)cc1)(c1ccc(O)c(-c2ccccc2O)c1)c1ccc(O)c(-c2ccccc2O)c1 [BiP-4] | good
10 | CC(c1ccc(-c2ccccc2)cc1)(c1ccc(O)c(-c2ccccc2)c1)c1ccc(O)c(-c2ccccc2)c1 [BiP-1] | good
11 | CC(c1ccc(C2CCCCC2)cc1)(c1c(O)ccc2cc(O)ccc12)c1c(O)ccc2cc(O)ccc12 [BiN-4] | good
12 | CC1(c2ccc(-c3ccccc3)cc2)c2ccc(O)cc2Oc2cc(O)ccc21 [P-3] | good
13 | CC1(c2ccc(C3CCCCC3)cc2)c2ccc(O)cc2Oc2cc(O)ccc21 [P-4] | good
14 | CC(c1ccc(-c2ccccc2)cc1)(c1c(O)ccc2ccccc12)c1c(O)ccc2ccccc12 [BiN-1] | good
